Structures can show the parent of a compound that is named as a salt.
How the values were obtained:
[1] = system: AAPH-induced oxidation of linoleate; test: AAPH-induced peroxidation of linoleate (conjugated dienes at 234 nm); format: biochemical; settings: for A234 (amount of conjugated dienes formed by the peroxidative process): absorption at 234 nm after 150 min at 37° C., aminopyrazines at 10 μM, AAPH alone 0.37; for antioxidative activity (inhibition of lipid peroxidation), in words: comment on Table 2, 10 μM; for antioxidative activity (inhibition of AAPH-induced peroxidation of linoleic acid), in words: FIG. 3
Experimental: In a preferred embodiment the synthetic derivatives of 2-amino-1,4-pyrazine of family I, characterized by two aryl substituents in positions C-3 and C-5, were endowed with unexpectedly high antioxidative properties (FIG. 1). […] AAPH 4 mM was added to a micellar solution of linoleate (0.16 mM). The rate of conjugated dienes formation was measured at 234 nm at 37° C. All aminopyrazines were tested at 5 μM.
The ability of the synthesized compounds to inhibit lipid peroxidation has been tested on AAPH-induced oxidation of linoleate. Briefly, a micellar solution of linoleate (0.16 mM) is incubated at 37° C. with 4 mM free radical generator AAPH (2,2′-azobis-2-methyl-propionamidine hydrochloride) in a microplate-based spectrophotometer. The production of conjugated dienes by the peroxidation of linoleate is monitored continuously at 234 nm. Antioxidants can both delay the onset of the oxidation process and reduce the rate of the oxidation.
The amount of conjugated dienes formed by the peroxidative process evaluated by the absorption at 234 nm after 150 min at 37° C. All aminopyrazines were tested at 10 μM.

[2] = system: Human keratinocytes cells (HaCaT); test: Protective effect against UVB in HaCaT cells (LDH release); format: cell-based; settings: for Percentage Mortality (LDH assay), Unirradiated cells: 24 hours, no UVB; for mortality at 50 µM: Homo sapiens, light or radiation study, 30 min pre-incubation, UVB 200 mJ/cm^2, 24 hours, control 14.1, read-out: Percentage Mortality (LDH assay), UVB-irradiated cells
Experimental: Human keratinocytes cells (HaCaT) were cultured in 96-well microplates. Tested compounds were solubilized in phosphate buffered saline (PBS) and applied to cells 30 minutes prior to the irradiation with UVB in a BIOSUN irradiation system (Vilbert-Lourmat). PBS was then replaced by the culture medium containing the tested compounds, and incubated for a further 24 hours before measuring the percentage of lactate dehydrogenase (LDH) released into the cell culture supernatant.
Keratinocytes were pre-incubated with aminopyrazines (50 μM) for 30 min and then irradiated with UVB at 200 mJ/cm^2 in the absence of the antioxidant. The cells were then incubated for a further 24 hours in the culture medium containing the tested compounds before measuring the percentage of lactate dehydrogenase (LDH) released into the cell culture supernatant.
Keratinocytes were pre-incubated with increasing concentrations of CD43 for 30 min and then irradiated with UVB at 200 mJ/cm^2. The cells were incubated for a further 24 hours before measuring the percentage of lactate dehydrogenase (LDH) released into the cell culture supernatant.

[3] = FIG. 2, increasing concentrations of CD43

Structure (SMILES): Cc1nc2c(-c3ccc(O)cc3)[nH]c(-c3ccccc3)cn-2c1=O (as salt: hydrochloride) (hydrate or solvate) [CD52, 2-Methyl-6-phenyl-8-(p-hydroxyphenyl)-3,7-dihydroimidazolo[1,2-a]pyrazin-3-one]
- melting point: 99.5 °C (dec.)

Structure (SMILES): CCOC(=O)C(C)Nc1nc(NC(C)C(=O)OCC)c(-c2ccc(O)cc2)nc1-c1ccc(O)cc1 (centres unmarked) (as salt: hydrochloride) [JFC38, 2,6-Bis(1′-ethoxycarbonyl-ethylamino)-3,5-bis(p-hydroxyphenyl)-1,4-pyrazine]
- melting point: 175 °C (dec.)

Structure (SMILES): COc1ccc(-c2cnc(N)c(-c3ccc(OC)cc3)n2)cc1 [CD29, 2-Amino-3,5-bis(p-methoxyphenyl)-1,4-pyrazine, reference compound]
- A234 (amount of conjugated dienes formed by the peroxidative process) [1]: 0.37
- antioxidative activity (inhibition of lipid peroxidation), in words [1]: reduced activities

Structure (SMILES): Nc1ncc(-c2ccc(O)cc2)nc1-c1ccc(O)cc1 [CD31, 2-amino-3,5-bis(p-hydroxyphenyl)-1,4-pyrazine]
- Percentage Mortality (LDH assay), Unirradiated cells ([2]; 50 μM): 0%
- mortality at 50 µM ([2]; 50 μM): 0%
- A234 (amount of conjugated dienes formed by the peroxidative process) [1]: 0.08
- antioxidative activity (inhibition of lipid peroxidation), in words [1]: very active

Structure (SMILES): Cc1nc2c(-c3ccc(O)cc3)[nH]c(-c3ccc(O)cc3)cn-2c1=O [CD43, 2-Methyl-6,8-bis(p-hydroxyphenyl)-3,7-dihydroimidazolo[1,2-a]pyrazin-3-one]
- protection against UVB-induced mortality, in words ([2]; FIG. 4, increasing concentrations of CD43, UVB 200 mJ/cm^2): very efficiently protect cells against UVB-induced mortality
- toxicity for cells, in words ([2]; controls): no toxicity for cells
- onset of peroxidation, in words [1, 3]: delay of the onset of peroxidation
- rate of oxidation after onset, in words [1, 3]: lower rate of oxidation after onset

Structure (SMILES): Nc1ncc(-c2ccccc2)nc1-c1ccc(O)cc1 [CD46, 2-amino-3-(p-hydroxyphenyl)-5-phenyl-1,4-pyrazine]
- Percentage Mortality (LDH assay), Unirradiated cells ([2]; 50 μM): 0%
- protection against UVB-induced cytotoxicity, in words ([2]; 50 μM, UVB 200 mJ/cm^2): very efficiently reduced the cytotoxicity of UVB
- mortality at 50 µM ([2]; 50 μM): 0%
- A234 (amount of conjugated dienes formed by the peroxidative process) [1]: 0.19

Structure (SMILES): Nc1ncc(-c2ccc(O)cc2)nc1-c1ccccc1 [CD51, 2-amino-3-phenyl-5-(p-hydroxyphenyl)-1,4-pyrazine]
- Percentage Mortality (LDH assay), Unirradiated cells ([2]; 50 μM): 0%
- mortality at 50 µM ([2]; 50 μM): 7.3%
- rate of the oxidation, in words ([1]; FIG. 6, 5 μM): only reduces the rate of the oxidation
- A234 (amount of conjugated dienes formed by the peroxidative process) [1]: 0.12
- antioxidative activity (inhibition of lipid peroxidation), in words [1]: more activity

Structure (SMILES): Cc1nc2c(-c3ccccc3)[nH]c(-c3ccc(O)cc3)cn-2c1=O [CD53, 2-Methyl-6-(p-hydroxyphenyl)-8-phenyl-3,7-dihydroimidazolo[1,2-a]pyrazin-3-one]
- onset of the oxidation process, in words ([1]; FIG. 6, 5 μM): firstly delays the onset of the oxidation process

Structure (SMILES): Nc1nc(N)c(-c2ccc(O)cc2)nc1-c1ccc(O)cc1 [JFC28, 2,6-diamino-3,5-bis(p-hydroxyphenyl)-1,4-pyrazine]
- antioxidative activity (inhibition of AAPH-induced peroxidation of linoleic acid), in words ([1]; 5 μM): does not improve the activity

Structure (SMILES): CCOC(=O)C(C)Nc1nc(NC(C)C(=O)OCC)c(-c2ccc(O)cc2)nc1-c1ccc(O)cc1 (centres unmarked) [JFC38, 2,6-Bis(1′-ethoxycarbonyl-ethylamino)-3,5-bis(p-hydroxyphenyl)-1,4-pyrazine]
- antioxidative activity (inhibition of AAPH-induced peroxidation of linoleic acid), in words ([1]; 5 μM): very active

Structure (SMILES): Nc1nc(N)c(-c2ccccc2)nc1-c1ccccc1 [JFC 33]
- antioxidative activity (inhibition of AAPH-induced peroxidation of linoleic acid), in words ([1]; 5 μM): active

Structure (SMILES): CCOC(=O)C(C)Nc1nc(NC(C)C(=O)OCC)c(-c2ccccc2)nc1-c1ccccc1 (centres unmarked) [JFC 39]
- antioxidative activity (inhibition of AAPH-induced peroxidation of linoleic acid), in words ([1]; 5 μM): active
